# Data as given in ChEMBL document CHEMBL1240508, “Design and synthesis of Hsp90 inhibitors: exploring the SAR of Sansalvamide A derivatives” (Bioorg Med Chem, 2010).
# Active and inactive are the calls of the source. The rule behind the calls is not given here. Non-standard residues stand in square brackets, D forms with d. Residues, ends and D or L forms follow the SMILES beside them. *: point of attachment. dNMeF = CN[C@H](Cc1ccccc1)C(=O)O; Cha = N[C@@H](CC1CCCCC1)C(=O)O; NMeK = CN[C@@H](CCCCN)C(=O)O; Boc = CC(C)(C)OC(=O)*; Bn = c1ccc(C*)cc1
# Tests used:
# HCT-116 [1] = assay: Cytotoxicity against human HCT116 cells at 10 uM after 72 hrs by [3H]thymidine incorporation assay; settings: read-out: GI
# HCT-116 [2] = assay: Cytotoxicity against human HCT116 cells after 72 hrs by [3H]thymidine incorporation assay
# [3] = Solubility of the compound; format: physicochemical
# [4] = Chemical stability of the compound assessed as half life; format: physicochemical
# [5] = Efflux ratio of permeability in human Caco-2 cells; format: ADME, cell-based
# [6] = Inhibition of Hsp90 assessed as Her2 interaction at up to 11 uM by Western blotting
# [7] = Inhibition of Hsp90 assessed as IP6K2 interaction at up to 11 uM by Western blotting
Compound,inhibition of growth at 10 µM (HCT-116 [1]) [%],further results
CC(C)C[C@@H]1NC(=O)[C@H](C(C)C)NC(=O)[C@@H](Cc2ccccc2)N(C)C(=O)[C@H](Cc2ccccc2)NC(=O)[C@H](CCCCN)NC1=O (cyclo(F[dNMeF]VLK)),0,–
CC(C)C[C@@H]1NC(=O)[C@H](CC(C)C)N(C)C(=O)[C@H](C(C)C)NC(=O)[C@@H](CC(C)C)NC(=O)[C@H](Cc2ccccc2)NC1=O,3,–
CC(C)C[C@@H]1NC(=O)[C@@H]([C@@H](OCc2ccccc2)c2ccccc2)NC(=O)[C@@H](Cc2ccccc2)NC(=O)[C@@H](CC(C)C)NC(=O)[C@H](C(C)C)N(C)C1=O (mixture of isomers),63,IC50 (HCT-116 [2]): 8.9 µM
CC(C)C[C@@H]1NC(=O)[C@H](Cc2ccccc2)NC(=O)[C@H](CCCCN)NC(=O)[C@H](CC(C)C)NC(=O)[C@H](C(C)C)NC1=O (cyclo(FLVLK)),0,–
CC(C)C[C@@H]1NC(=O)[C@H](CC(C)C)NC(=O)[C@H](C(C)C)NC(=O)[C@H](CC(C)C)NC(=O)[C@@H](Cc2c[nH]c3ccccc23)NC1=O,30,–
CC(C)C[C@@H]1NC(=O)[C@H](Cc2ccccc2)NC(=O)[C@@H](Cc2ccccc2)NC(=O)[C@@H](CCCCNC(=O)OCc2ccccc2)NC(=O)[C@H](C(C)C)N(C)C1=O,36,–
CC(C)[C@H]1NC(=O)[C@@H](Cc2ccccc2)N(C)C(=O)[C@H](Cc2ccccc2)NC(=O)[C@H](CO)NC(=O)[C@H](CC2CCCCC2)NC1=O,18,–
CC(C)C[C@@H]1NC(=O)[C@H](CC(C)C)NC(=O)[C@H](C(C)C)NC(=O)[C@H](CC(C)C)NC(=O)[C@@H](Cc2ccc(O)cc2)NC1=O,50,–
CC(C)C[C@@H]1NC(=O)[C@H](Cc2ccccc2)NC(=O)[C@H](CCCCN)NC(=O)[C@H](CC(C)C)NC(=O)[C@@H](C(C)C)NC1=O (cyclo(FL[dV]LK)),0,–
CC(C)C[C@@H]1NC(=O)[C@H](CC(C)C)NC(=O)[C@H](C(C)C)NC(=O)[C@@H](CC(C)C)NC(=O)[C@@H](Cc2ccccc2)NC1=O,14,–
CC(C)C[C@@H]1NC(=O)[C@H](CC(C)C)NC(=O)[C@H](C(C)C)NC(=O)[C@@H](Cc2ccccc2)NC(=O)[C@H](Cc2ccccc2)NC1=O,21,–
CC(C)C[C@@H]1NC(=O)[C@@H](Cc2ccccc2)NC(=O)[C@@H](CC(C)C)NC(=O)[C@H](CC(C)C)N(C)C(=O)[C@H](C(C)C)NC1=O,18,–
CC(C)C[C@@H]1NC(=O)[C@H](Cc2ccccc2)NC(=O)[C@H](CCCCN)N(C)C(=O)[C@H](CC(C)C)NC(=O)[C@H](C(C)C)NC1=O (cyclo(FLVL[NMeK])),0,–
CC(C)C[C@@H]1NC(=O)[C@H](Cc2ccccc2)NC(=O)[C@@H](Cc2ccccc2)NC(=O)[C@@H](CC(C)C)NC(=O)[C@H](C(C)C)NC1=O,28,–
CC(C)C[C@@H]1NC(=O)[C@H](Cc2ccccc2)NC(=O)[C@H](CCCCNC(=O)OC(C)(C)C)N(C)C(=O)[C@H](CC(C)C)NC(=O)[C@H](C(C)C)NC1=O (cyclo(FLVL[NMeK](Boc))),58,–
CC(C)C[C@@H]1NC(=O)[C@H](CC(C)C)NC(=O)[C@H](C(C)C)NC(=O)[C@H](CC(C)C)NC(=O)[C@@H](Cc2ccccc2)NC1=O,26,–
CC(C)C[C@@H]1NC(=O)[C@H](Cc2ccccc2)NC(=O)[C@H](CC(C)C)N(C)C(=O)[C@H](CC(C)C)NC(=O)[C@H](C(C)C)NC1=O,35,–

Compound,inhibition of growth at 10 µM (HCT-116 [1]) [%],further results
CC(C)C[C@@H]1NC(=O)[C@H](CC(C)C)NC(=O)[C@@H](C(C)C)NC(=O)[C@H](CC(C)C)NC(=O)[C@H](Cc2ccccc2)NC1=O,8,–
CC(C)C[C@@H]1NC(=O)[C@H](CC(C)C)NC(=O)[C@@H](C(C)C)NC(=O)[C@@H](Cc2ccccc2)NC(=O)[C@H](Cc2ccccc2)NC1=O,4,–
CC(C)C[C@@H]1NC(=O)[C@@H](C(C)C)NC(=O)[C@@H](CC(C)C)NC(=O)[C@H](Cc2ccccc2)N(C)C(=O)[C@H](CC(C)C)NC1=O,30,–
CC(C)C[C@@H]1NC(=O)[C@@H](CC(C)C)NC(=O)[C@@H](C(C)C)NC(=O)[C@H](CC(C)C)N(C)C(=O)[C@H](Cc2ccccc2)NC1=O,30,–
CC(C)C[C@@H]1NC(=O)[C@H](CC(C)C)NC(=O)[C@H](C(C)C)NC(=O)[C@@H](Cc2ccccc2)N(C)C(=O)[C@H](Cc2ccccc2)NC1=O,99,–
CC(C)C[C@@H]1NC(=O)[C@H](Cc2ccccc2)NC(=O)[C@H](CCCCNC(=O)OC(C)(C)C)NC(=O)[C@H](CC(C)C)NC(=O)[C@H](C(C)C)NC1=O,0,–
CC(C)C[C@@H]1NC(=O)[C@@H]([C@H](OCc2ccccc2)c2ccccc2)NC(=O)[C@@H](Cc2ccccc2)NC(=O)[C@@H](CC(C)C)NC(=O)[C@H](C(C)C)N(C)C1=O,94,solubility [3]: 7 µM; half-life [4]: > 2.87 h; efflux ratio [5]: 3; IC50 (HCT-116 [2]): 3.2 µM
CC(C)C[C@@H]1NC(=O)[C@H](Cc2ccccc2)NC(=O)[C@H](CCCCNC(=O)OC(C)(C)C)NC(=O)[C@H](CC(C)C)NC(=O)[C@@H](C(C)C)NC1=O,9,–
CC(C)C[C@@H]1NC(=O)[C@H]([C@@H](OCc2ccccc2)c2ccccc2)NC(=O)[C@@H](Cc2ccccc2)NC(=O)[C@@H](CC(C)C)NC(=O)[C@H](C(C)C)N(C)C1=O,64,IC50 (HCT-116 [2]): 5.8 µM
CC(C)C[C@@H]1NC(=O)[C@H](Cc2ccccc2)NC(=O)[C@@H](CC(C)C)N(C)C(=O)[C@H](CC(C)C)NC(=O)[C@H](C(C)C)NC1=O,32,–
CC(C)C[C@@H]1NC(=O)[C@H](CC(C)C)NC(=O)[C@H](C(C)C)NC(=O)[C@H](CC(C)C)NC(=O)[C@H](Cc2ccccc2)NC1=O,–,IC50 (HCT-116 [2]): 19.7 µM
CC(C)C[C@@H]1NC(=O)[C@@H](Cc2ccccc2)NC(=O)[C@@H](Cc2ccccc2)NC(=O)[C@@H](CC(C)C)N(C)C(=O)[C@H](C(C)C)N(C)C1=O,15,–
CC(C)[C@H]1NC(=O)[C@@H](Cc2ccccc2)N(C)C(=O)[C@H](Cc2ccccc2)NC(=O)[C@H](COCc2ccccc2)NC(=O)[C@H](CC2CCCCC2)NC1=O (cyclo([Cha]S(Bn)F[dNMeF][dV])),93,inhibition [6]: Active; inhibition [7]: Active; solubility [3]: < 5 µM; IC50 (HCT-116 [2]): ≤ 1.9 µM
CC(C)C[C@@H]1NC(=O)[C@H](C(C)C)NC(=O)[C@@H](CC(C)C)NC(=O)[C@@H](Cc2ccccc2)NC(=O)[C@H](CC(C)C)N(C)C1=O,15,–
CC(C)C[C@@H]1NC(=O)[C@H](C(C)C)NC(=O)[C@@H](Cc2ccccc2)N(C)C(=O)[C@H](Cc2ccccc2)NC(=O)[C@@H](CC(C)C)N(C)C1=O,47,–
CC(C)C[C@@H]1NC(=O)[C@H](Cc2ccccc2)NC(=O)[C@@H](CC(C)C)NC(=O)[C@@H](CC(C)C)NC(=O)[C@H](C(C)C)NC1=O,20,–
CC(C)[C@H]1NC(=O)[C@@H](Cc2ccccc2)NC(=O)[C@H](Cc2ccccc2)NC(=O)[C@H](COCc2ccccc2)NC(=O)[C@H](CC2CCCCC2)NC1=O (cyclo([Cha]S(Bn)F[dF][dV])),10,inhibition [6]: inactive; inhibition [7]: inactive
